Experiments:
[1] = target: T1, human histamine H4 receptor (Homo sapiens, UniProt Q9H3N8); experiment: Binding assay on recombinant human histamine H4 receptor (3H-histamine displacement); details: read-out: Binding Assay Ki; repeated in the chemotaxis table
[2] = target: T1, human histamine H4 receptor; experiment: biochemical
Mast cells = experiment: Mast cell chemotaxis assay (histamine-induced, transwell); type: cell-based; details: 10 μM histamine; HR antagonist 1 μM
Protocol: Mast Cell Chemotaxis Assay
Mast cell accumulation in mucosal epithelia is a well-known characteristic of allergic rhinitis and asthma. Transwells (Costar, Cambridge, Mass.) of a pore size 8 μm were coated with 100 μL of 100 ng/mL human fibronectin (Sigma) for 2 h at room temperature. […] Mast cells (2×10^5/well) were added to the top chamber. The plates were incubated for 3 h at 37° C. Transwells were removed, and the cells in the bottom chamber were counted for sixty seconds using a flow cytometer.

Ki [1] [nM]	Ki [2] [nM]	Structure (SMILES)	% Inh (Mast cells) [%]
28	28	CN1CCN(C(=O)c2nc3cc(F)c(F)cc3[nH]2)CC1 [Example 9, (5,6-Difluoro-1H-benzoimidazol-2-yl)-(4-methyl-piperazin-1-yl)-methanone]	–
87	87	O=C(c1nc2cc(Cl)ccc2[nH]1)N1CCNCC1 [Example 7, (5-Chloro-1H-benzoimidazol-2-yl)-piperazin-1-yl-methanone]	8
25	25	CN1CCN(C(=O)c2nc3cc(Cl)ccc3[nH]2)CC1 [Example 6, (5-Chloro-1H-benzoimidazol-2-yl)-(4-methyl-piperazin-1-yl)-methanone]	–

Source: patent US7504426B2, “Heterocyclic compounds” (Janssen Pharmaceutica N.V., priority 2003, dated 2009)
